The source of these data is US20260327204A1, “DEGRADERS OF CYCLIN-DEPENDENT KINASE 12/13, COMPOSITIONS, AND USES THEREOF” (ZHEJIANG UNIVERSITY, priority 2023, published 2026).

Bounds are passed on as bounds.

The target in one test is CDK13 (Homo sapiens, UniProt Q14004). As to the kind of experiment: Western blot degradation of CDK13 (Example 2). It counts as cell-based. Also on record: degradation of CDK12/13 protein in leukemia cells KASUMI-1, MV4-11, and Jurkat; endogenous in cells. Conditions: DC50 classes, cell line not given; for DC50: read-out: CDK13 degradation Activity. As to the method:
(§1) Western blot was used to determine the degradation of CDK12/13 protein in leukemia cells KASUMI-1, MV4-11, and Jurkat. The two compounds with the best degradation effects were further validated for their ability to degrade CDK12/13 protein in breast cancer cells MDA-MB-231 using a concentration gradient.
(§2) • Cell lines: KASUMI-1, MV4-11, Jurkat, or MDA-MB-231 • Culture medium: DMEM/RIPM-1640+10% Hyclone serum • Compound dissolution method: Compounds were dissolved in DMSO to prepare a 50 mM stock solution, and then diluted to the corresponding concentrations.
(§3) (1) In vitro cell culture: The selected cells were cultured in a 37 °C constant temperature incubator with 5% CO2. Once the cell density reached 70-90%, they were passaged for subsequent experiments.
(§4) (2) Cell seeding: Cells were digested, and the cell suspension was transferred to a 1.5 mL Eppendorf tube. After centrifugation at 1,000 rpm for 5 min, the cells were resuspended in 2 mL of culture medium and counted. The cell suspension was seeded in a 24-well plate at a density of 200,000 cells per well and allowed to adhere for 8-12 h.
(§5) (3) Compound treatment: The 50 mM compound stock solution was diluted with cell culture medium to a final concentration of 0.01 μM-3 μM. Cells were incubated in a 37 °C incubator with 5% CO2 for 3 h-48 h. The DMSO group served as the negative control.
(§6) At the end of the treatment time, the cells were collected and washed once with PBS. An appropriate volume of 4% SDS was added to lyse the cells, and the mixture was sonicated until no longer viscous. After centrifugation at 12,000 rpm at room temperature for 30 min, the supernatant was transferred to a new EP tube for protein quantification.
(§7) The exposure results were quantitatively analyzed using Image J software. First, the grayscale values of the bands were calculated using Image J. Then, the grayscale value of the target protein was divided by the grayscale value of the internal reference protein for normalization. The calculation formula is: […]
(§8) Where A is the grayscale value and D is the degradation rate.
(§9) In the figures, CDK12 and CDK13 are the target proteins under study, and β-Actin and GAPDH are the internal reference proteins. Internal reference proteins are used to indicate the total protein amount in each experimental group for quantitative analysis.

The target of the next test is CDK12 (Homo sapiens, UniProt Q9NYV4). As to the kind of experiment: Western blot degradation of CDK12 (Example 2). Also on record: degradation of CDK12/13 protein in leukemia cells KASUMI-1, MV4-11, and Jurkat; endogenous in cells. Type of test: cell-based. As to conditions: DC50 classes, cell line not given; for DC50: read-out: CDK12 degradation Activity. As to the method:
as §1, §2, §3, §4, §5, §6, §7, §8, §9
In general terms: In western blotting, separated proteins are transferred to a membrane and probed.

Sequence of CDK12 (Q9NYV4 whole entry): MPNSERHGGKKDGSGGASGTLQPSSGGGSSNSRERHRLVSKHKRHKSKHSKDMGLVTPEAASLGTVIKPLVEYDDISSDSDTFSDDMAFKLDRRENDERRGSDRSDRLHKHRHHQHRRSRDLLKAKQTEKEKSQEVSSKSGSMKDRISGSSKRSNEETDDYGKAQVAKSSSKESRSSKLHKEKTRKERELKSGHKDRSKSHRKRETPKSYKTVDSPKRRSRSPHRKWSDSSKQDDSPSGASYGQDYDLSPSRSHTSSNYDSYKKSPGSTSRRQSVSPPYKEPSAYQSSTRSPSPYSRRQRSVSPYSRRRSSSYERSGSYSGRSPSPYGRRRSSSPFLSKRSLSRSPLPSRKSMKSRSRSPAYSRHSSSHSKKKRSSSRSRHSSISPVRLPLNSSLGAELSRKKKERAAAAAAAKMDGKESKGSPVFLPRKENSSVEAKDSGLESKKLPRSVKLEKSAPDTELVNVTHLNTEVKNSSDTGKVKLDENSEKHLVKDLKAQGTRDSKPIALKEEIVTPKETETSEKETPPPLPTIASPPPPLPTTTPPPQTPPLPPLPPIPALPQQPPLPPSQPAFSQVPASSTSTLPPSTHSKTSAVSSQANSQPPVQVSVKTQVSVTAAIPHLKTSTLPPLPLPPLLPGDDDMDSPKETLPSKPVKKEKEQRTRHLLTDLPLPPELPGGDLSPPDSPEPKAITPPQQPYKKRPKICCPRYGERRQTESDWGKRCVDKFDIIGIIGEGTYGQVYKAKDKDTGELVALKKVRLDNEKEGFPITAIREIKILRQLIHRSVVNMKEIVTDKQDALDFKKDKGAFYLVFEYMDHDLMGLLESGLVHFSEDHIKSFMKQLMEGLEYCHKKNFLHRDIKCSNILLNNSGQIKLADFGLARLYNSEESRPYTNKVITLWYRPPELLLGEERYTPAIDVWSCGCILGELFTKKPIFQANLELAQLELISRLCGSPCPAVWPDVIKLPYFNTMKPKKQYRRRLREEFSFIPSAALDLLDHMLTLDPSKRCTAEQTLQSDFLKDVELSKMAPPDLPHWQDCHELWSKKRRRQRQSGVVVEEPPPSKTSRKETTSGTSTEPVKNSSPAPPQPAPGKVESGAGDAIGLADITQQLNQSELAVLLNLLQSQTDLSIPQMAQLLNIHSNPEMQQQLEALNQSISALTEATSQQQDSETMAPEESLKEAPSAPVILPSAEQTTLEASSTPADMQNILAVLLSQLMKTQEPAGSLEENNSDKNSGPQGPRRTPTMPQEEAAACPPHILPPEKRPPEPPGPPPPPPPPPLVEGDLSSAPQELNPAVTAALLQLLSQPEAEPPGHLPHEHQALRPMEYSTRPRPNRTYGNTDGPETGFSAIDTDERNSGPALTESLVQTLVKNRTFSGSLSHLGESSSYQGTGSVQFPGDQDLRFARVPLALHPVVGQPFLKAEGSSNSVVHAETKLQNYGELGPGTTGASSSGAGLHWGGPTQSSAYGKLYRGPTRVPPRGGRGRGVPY
Sequence of CDK12 (O75909 whole entry partner): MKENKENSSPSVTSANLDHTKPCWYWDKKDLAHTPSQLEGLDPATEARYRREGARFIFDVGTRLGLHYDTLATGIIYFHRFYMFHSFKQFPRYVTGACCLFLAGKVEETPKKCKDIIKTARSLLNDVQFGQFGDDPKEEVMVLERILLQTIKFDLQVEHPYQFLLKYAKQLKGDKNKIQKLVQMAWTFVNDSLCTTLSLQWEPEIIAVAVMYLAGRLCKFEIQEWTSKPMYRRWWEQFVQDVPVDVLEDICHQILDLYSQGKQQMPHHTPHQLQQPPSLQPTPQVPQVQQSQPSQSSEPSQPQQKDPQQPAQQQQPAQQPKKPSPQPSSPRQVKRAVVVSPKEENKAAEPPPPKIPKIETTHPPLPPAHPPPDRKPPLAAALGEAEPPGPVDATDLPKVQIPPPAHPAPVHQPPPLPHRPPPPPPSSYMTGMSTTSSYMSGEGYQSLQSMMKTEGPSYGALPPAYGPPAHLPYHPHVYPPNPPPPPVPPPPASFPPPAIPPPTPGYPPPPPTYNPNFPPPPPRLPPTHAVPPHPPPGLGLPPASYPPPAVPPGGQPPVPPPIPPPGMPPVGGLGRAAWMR
Sequence of CDK13 (Q14004 whole entry): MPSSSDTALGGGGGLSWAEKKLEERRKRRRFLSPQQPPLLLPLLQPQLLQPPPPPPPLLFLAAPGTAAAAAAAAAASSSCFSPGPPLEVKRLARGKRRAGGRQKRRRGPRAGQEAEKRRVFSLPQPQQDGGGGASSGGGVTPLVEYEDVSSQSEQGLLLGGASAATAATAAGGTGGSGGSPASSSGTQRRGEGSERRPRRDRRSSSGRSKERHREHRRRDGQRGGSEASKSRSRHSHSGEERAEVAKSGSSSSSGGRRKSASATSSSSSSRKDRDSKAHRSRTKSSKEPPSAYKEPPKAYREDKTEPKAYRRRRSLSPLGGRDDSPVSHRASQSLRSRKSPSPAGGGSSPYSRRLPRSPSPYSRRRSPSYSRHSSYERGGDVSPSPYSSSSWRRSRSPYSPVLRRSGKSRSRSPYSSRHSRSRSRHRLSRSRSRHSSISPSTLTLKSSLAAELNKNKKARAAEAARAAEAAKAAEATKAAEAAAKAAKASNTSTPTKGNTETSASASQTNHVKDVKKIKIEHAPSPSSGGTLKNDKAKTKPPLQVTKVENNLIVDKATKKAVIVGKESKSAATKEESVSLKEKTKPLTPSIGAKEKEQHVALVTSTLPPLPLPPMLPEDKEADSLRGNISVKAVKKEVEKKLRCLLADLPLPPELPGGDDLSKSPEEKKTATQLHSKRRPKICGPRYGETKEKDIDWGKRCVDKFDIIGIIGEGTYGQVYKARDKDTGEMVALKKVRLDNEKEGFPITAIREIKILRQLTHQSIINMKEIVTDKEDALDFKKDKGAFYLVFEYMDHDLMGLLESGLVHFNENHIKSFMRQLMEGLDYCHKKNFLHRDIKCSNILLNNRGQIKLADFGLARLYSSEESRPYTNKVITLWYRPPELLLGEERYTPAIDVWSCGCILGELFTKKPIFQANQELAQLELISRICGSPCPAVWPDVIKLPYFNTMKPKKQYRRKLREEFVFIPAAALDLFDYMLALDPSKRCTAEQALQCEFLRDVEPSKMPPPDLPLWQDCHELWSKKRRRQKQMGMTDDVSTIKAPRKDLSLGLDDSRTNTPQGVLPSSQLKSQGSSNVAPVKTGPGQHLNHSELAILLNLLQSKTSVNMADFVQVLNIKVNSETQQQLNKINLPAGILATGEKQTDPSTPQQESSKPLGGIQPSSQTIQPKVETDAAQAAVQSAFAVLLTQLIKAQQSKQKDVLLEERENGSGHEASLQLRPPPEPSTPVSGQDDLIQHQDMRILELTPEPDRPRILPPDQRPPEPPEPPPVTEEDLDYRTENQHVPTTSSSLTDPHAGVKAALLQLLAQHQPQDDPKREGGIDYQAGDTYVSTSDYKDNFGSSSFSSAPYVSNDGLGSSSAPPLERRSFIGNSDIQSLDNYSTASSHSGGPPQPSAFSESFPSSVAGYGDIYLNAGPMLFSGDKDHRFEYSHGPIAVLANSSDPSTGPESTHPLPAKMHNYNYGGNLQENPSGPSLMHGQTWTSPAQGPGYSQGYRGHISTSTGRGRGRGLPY
Sequence of CDK13 (O75909 whole entry partner): as the sequence (O75909 whole entry partner) above

For the compound `Cc1ncsc1-c1ccc([C@H](C)NC(=O)[C@@H]2C[C@@H](O)CN2C(=O)[C@@H](NC(=O)CN2CCN(c3ccc(-c4ccc(N(C(=O)NCc5ccccc5)[C@H]5CC[C@H](Nc6ccc(C#N)cn6)CC5)cc4)cn3)CC2)C(C)(C)C)cc1` [Formula 71], the DC50 at CDK13 was less than 100 nM.
Take `Cc1ncsc1-c1ccc([C@H](C)NC(=O)[C@@H]2C[C@@H](O)CN2C(=O)[C@@H](NC(=O)C2CC3(CC(Nc4ccc(N(C(=O)NCc5ccccc5)[C@H]5CC[C@H](Nc6ccc(C#N)cn6)CC5)cc4)C3)C2)C(C)(C)C)cc1` (stereo partly shown) [Formula 27]: the DC50 at CDK12 was 3000 to 10000 nM. Also, the “CDK13 degradation Activity” value on CDK13 was “−”.
For `Cc1ncsc1-c1ccc([C@H](C)NC(=O)[C@@H]2C[C@@H](O)CN2C(=O)[C@@H](NC(=O)N2CCC3(CC2)CCN(c2ccc(N(C(=O)NCc4ccccc4)[C@H]4CC[C@H](Nc5ccc(C#N)cn5)CC4)cn2)CC3)C(C)(C)C)cc1` [Formula 52], in that order: 3000 to 10000 nM and “−”.
For the compound `Cc1ncsc1-c1ccc([C@H](C)NC(=O)[C@@H]2C[C@@H](O)CN2C(=O)[C@@H](NC(=O)CN2CCN(c3ccc(-c4ccc5c(c4)CCN(Cc4ccccc4)C(=O)N5[C@H]4CC[C@H](Nc5ccc(C#N)cn5)CC4)cn3)CC2)C(C)(C)C)cc1` [Formula 69], the DC50 was in the range of 500 to 1000 nM at CDK12 and 100 to 500 nM at CDK13.
Turning to `Cc1ncsc1-c1ccc([C@H](C)NC(=O)[C@@H]2C[C@@H](O)CN2C(=O)[C@@H](NC(=O)CN2CC(C#Cc3ccc(N(C(=O)NCc4ccccc4)[C@H]4CC[C@H](Nc5ccc(C#N)cn5)CC4)cc3)C2)C(C)(C)C)cc1` [Formula 26], the “CDK12 degradation Activity” value at CDK12 is “−”. Further, the “CDK13 degradation Activity” value on CDK13 is “−”.
Take `Cc1ncsc1-c1ccc([C@H](C)NC(=O)[C@@H]2C[C@@H](O)CN2C(=O)[C@@H](NC(=O)C2CCN(c3ccc(-c4ccc(N(C(=O)NCc5ccccc5)[C@H]5CC[C@H](Nc6ccc(C#N)cn6)CC5)cc4)cn3)CC2)C(C)(C)C)cc1` [Formula 17]: the DC50 fell in the range of 1000 to 3000 nM on CDK12 and 500 to 1000 nM at CDK13.
As for `Cc1ncsc1-c1ccc([C@H](C)NC(=O)[C@@H]2C[C@@H](O)CN2C(=O)[C@@H](NC(=O)COCCOCCOc2ccc(-c3ccc(N(C(=O)NCc4ccccc4)[C@H]4CC[C@H](Nc5ccc(C#N)cn5)CC4)cc3)cn2)C(C)(C)C)cc1` [Formula 2], the values for the DC50 on CDK12 and on CDK13 were 1000 to 3000 nM and 500 to 1000 nM, respectively.
For the compound `N#Cc1ccc(N[C@H]2CC[C@H](N(C(=O)NCc3ccccc3)c3ccc(N4CCN(CCOCCNc5cccc6c5C(=O)N(C5CCC(=O)NC5=O)C6=O)CC4)cc3)CC2)nc1` (stereo partly shown) [Formula 38], the DC50 on CDK12 is 500 to 1000 nM; at CDK13, 1000 to 3000 nM.
With `Cc1ncsc1-c1ccc([C@H](C)NC(=O)[C@@H]2C[C@@H](O)CN2C(=O)[C@@H](NC(=O)CC2CN(c3ccc(-c4ccc(N(C(=O)NCc5ccccc5)[C@H]5CC[C@H](Nc6ccc(C#N)cn6)CC5)cc4)cn3)C2)C(C)(C)C)cc1` [Formula 29], the DC50 on CDK12 fell in the range of 3000 to 10000 nM. Also, on CDK13, the “CDK13 degradation Activity” value is recorded as “−”.
Turning to `N#Cc1ccc(N[C@H]2CC[C@H](N(C(=O)NCc3ccccc3)c3ccc(-c4ccc(=O)n(CCOCCNc5cccc6c5C(=O)N(C5CCC(=O)NC5=O)C6=O)c4)cc3)CC2)nc1` (stereo partly shown) [Formula 46], the DC50 on CDK12 was 1000 to 3000 nM; on CDK13, 500 to 1000 nM.
For `Cc1ncsc1-c1ccc([C@H](C)NC(=O)[C@@H]2C[C@@H](O)CN2C(=O)[C@@H](NC(=O)CN2CCC(n3cc(-c4ccc(N(C(=O)NCc5ccccc5)[C@H]5CC[C@H](Nc6ccc(C#N)cn6)CC5)cc4)cn3)CC2)C(C)(C)C)cc1` [Formula 31], the DC50 at CDK12 lay within 1000 to 3000 nM; at CDK13 it was 3000 to 10000 nM.
As to `Cc1ncsc1-c1ccc([C@H](C)NC(=O)[C@@H]2C[C@@H](O)CN2C(=O)[C@@H](NC(=O)CN2CCC(COc3ccc(-c4ccc(N(C(=O)NCc5ccccc5)[C@H]5CC[C@H](Nc6ccc(C#N)cn6)CC5)cc4)cn3)CC2)C(C)(C)C)cc1` [Formula 12], the DC50 at CDK12 was 500 to 1000 nM; on CDK13 it was 100 to 500 nM.
The like results for `Cc1ncsc1-c1ccc([C@H](C)NC(=O)[C@@H]2C[C@@H](O)CN2C(=O)[C@@H](NC(=O)CC#CCOc2ccc(-c3ccc(N(C(=O)NCc4ccccc4)[C@H]4CC[C@H](Nc5ccc(C#N)cn5)CC4)cc3)cn2)C(C)(C)C)cc1` [Formula 16] were, in that order, 3000 to 10000 nM and 3000 to 10000 nM.
On to `Cc1ncsc1-c1ccc([C@H](C)NC(=O)[C@@H]2C[C@@H](O)CN2C(=O)[C@@H](NC(=O)CC#CC2CCN(c3ccc(N(C(=O)NCc4ccccc4)[C@H]4CC[C@H](Nc5ccc(C#N)cn5)CC4)cc3)CC2)C(C)(C)C)cc1` [Formula 20], for which the DC50 on CDK12 and at CDK13 was 3000 to 10000 nM each time.
On to `Cc1ncsc1-c1ccc([C@H](C)NC(=O)[C@@H]2C[C@@H](O)CN2C(=O)[C@@H](NC(=O)COCCOCCOCCN2CCN(c3ccc(N(C(=O)NCc4ccccc4)[C@H]4CC[C@H](Nc5ccc(C#N)cn5)CC4)cc3)CC2)C(C)(C)C)cc1` [Formula 9], for which the DC50 on CDK12 and at CDK13 was 3000 to 10000 nM each time.
As to `Cc1ncsc1-c1ccc([C@H](C)NC(=O)[C@@H]2C[C@@H](O)CN2C(=O)[C@@H](NC(=O)CN2CCN(c3ncc(-c4ccc(N(C(=O)NCc5ccccc5)[C@H]5CC[C@H](Nc6ccc(C#N)cn6)CC5)cc4)cn3)CC2)C(C)(C)C)cc1` [Formula 85], the DC50 on CDK12 and on CDK13 was less than 100 nM each time.
In the case of `Cc1ncsc1-c1ccc([C@H](C)NC(=O)[C@@H]2C[C@@H](O)CN2C(=O)[C@@H](NC(=O)CC#CC2CCN(c3ccc(-c4ccc(N(C(=O)NCc5ccccc5)[C@H]5CC[C@H](Nc6ccc(C#N)cn6)CC5)cc4)cn3)CC2)C(C)(C)C)cc1` [Formula 19], the “CDK12 degradation Activity” value on CDK12 is given as “−”. The “CDK13 degradation Activity” value at CDK13 is on record as “−”.
For the compound `Cc1ncsc1-c1ccc([C@H](C)NC(=O)[C@@H]2C[C@@H](O)CN2C(=O)[C@@H](NC(=O)CC#CC2CN(c3ccc(N(C(=O)NCc4ccccc4)[C@H]4CC[C@H](Nc5ccc(C#N)cn5)CC4)cc3)C2)C(C)(C)C)cc1` [Formula 24], at CDK12, the “CDK12 degradation Activity” value is reported as “−”. Besides, the “CDK13 degradation Activity” value on CDK13 is “−”.
Consider `Cc1ncsc1-c1ccc([C@H](C)NC(=O)[C@@H]2C[C@@H](O)CN2C(=O)[C@@H](NC(=O)CN2CCN(c3ccc(-c4ccc5c(c4)CCCN(Cc4ccccc4)C(=O)N5[C@H]4CC[C@H](Nc5ccc(C#N)cn5)CC4)cn3)CC2)C(C)(C)C)cc1` [Formula 70], for which the DC50 on CDK12 and at CDK13 was less than 100 nM throughout.
As for `Cc1ncsc1-c1ccc([C@H](C)NC(=O)[C@@H]2C[C@@H](O)CN2C(=O)[C@@H](NC(=O)CN2CCN(c3ccc(-c4ccc(N(C(=O)NCc5ccccc5)[C@H]5CC[C@H](Nc6ccc(C#N)cn6)CC5)cc4)cn3)CC2)C(C)(C)C)cc1` [Formula 74], the DC50 on CDK13 was less than 100 nM.
Take `Cc1ncsc1-c1ccc([C@H](C)NC(=O)[C@@H]2C[C@@H](O)CN2C(=O)[C@@H](NC(=O)CN2CCN(c3ccc(-c4ccc(N(C(=O)NCc5ccccc5)[C@H]5CC[C@H](Nc6ccc(C#N)cn6)CC5)cc4)cn3)CC2)C(C)(C)C)cc1` [Formula 76]: the DC50 on CDK13 is less than 100 nM.
On to `Cc1ncsc1-c1ccc([C@H](C)NC(=O)[C@@H]2C[C@@H](O)CN2C(=O)[C@@H](NC(=O)CN2CCN(c3ccc(-c4ccc(N(C(=O)NCc5ccccc5)[C@H]5CC[C@H](Nc6ccc(C#N)cn6)CC5)cc4)cn3)CC2)C(C)(C)C)cc1` [Formula 78], for which the DC50 at CDK13 is less than 100 nM.
For the compound `Cc1ncsc1-c1ccc([C@H](C)NC(=O)[C@@H]2C[C@@H](O)CN2C(=O)[C@@H](NC(=O)CN2CCN(c3ccc(-c4ccc(N(C(=O)NCc5ccccc5)[C@H]5CC[C@H](Nc6ccc(C#N)cn6)CC5)cc4)cn3)CC2)C(C)(C)C)cc1` [Formula 77], the DC50 on CDK13 was less than 100 nM.
In the case of `Cc1ncsc1-c1ccc([C@H](C)NC(=O)[C@@H]2C[C@@H](O)CN2C(=O)[C@@H](NC(=O)CN2CCN(c3ccc(-c4ccc(N(C(=O)NCc5ccccc5)[C@H]5CC[C@H](Nc6ccc(C#N)cn6)CC5)cc4)cn3)CC2)C(C)(C)C)cc1` [Formula 75], the DC50 on CDK13 was less than 100 nM.
Consider `Cc1ncsc1-c1ccc([C@H](C)NC(=O)[C@@H]2C[C@@H](O)CN2C(=O)[C@@H](NC(=O)CN2CCN(c3ccc(-c4ccc(N(C(=O)NCc5ccccc5)[C@H]5CC[C@H](Nc6ccc(C#N)cn6)CC5)cc4)cn3)CC2)C(C)(C)C)cc1` [Formula 72], for which the DC50 at CDK13 is less than 100 nM.
